In series [1] the test system is KRAS^CCLW. As to the kind of experiment: ESI-TOF mass spectrometry of adduct formation with reduced or H2O2-oxidized KRAS^CCLW. Conditions: for reaction with sulfenic acid form of protein: H2O2-oxidized KRAS^CCLW (-SOH).
Experimental: The samples were buffer exchanged using a P6 Bio-Gel column that was pre-equilibrated with 50 mM ammonium bicarbonate (ABC). […] Oxidation was achieved by addition of 1 to 10 molar equivalents of H2O2 for 10 min at 25 °C with 250 RPM shaking using a thermomixer. The reaction was quenched by passing through a P6 Bio-Gel spin column pre-equilibrated with ABC.
Samples were introduced via direct infusion at a flow rate of 20 μl/min using a syringe pump. Mass spectra were acquired over the range of 600 − 3200 m/z and then averaged and deconvoluted, and ion abundance was quantified using Agilent MassHunter Workstation software vB.02.00. Relative ion abundances were used to determine the reaction progress.
Series [2] addresses T1, KRAS^CCLW (KRAS^G12C/C51S/C80L/C118S/Y137W) (Homo sapiens, UniProt P01116, C118S/C51S/C80L/G12C/Y137W).
T1 construct: Truncated human KRAS4B (residues 2–169) was expressed from a modified pET21 bacterial expression vector; 6xHis (followed by TEV site) (N, cleaved yes); made in house; host or cells: Rosetta2 (DE3) cells (E. coli)
As to the kind of experiment: Stopped-flow fluorescence kinetics of KRAS^CCLW with covalent inhibitor (binding and ligation). Particulars: for k +1: global fit KinTek Explorer, kon of reversible binding; for k +2 / k −1: global fit; for k +2: kinact; for k −1: koff of reversible binding.
Experimental: Note that in this kinetic model, k+1 represents kon and k-1 represents koff for reversible inhibitor binding, and Kd can be calculated from the ratio of the two. In addition, k+2 represents kinact and k-2, not shown in the model, is 0 due to the irreversible formation of the covalent bond between KRAS and inhibitor.
The KRAS was first reduced by adding 10 mM DTT and incubating at 20 °C for 30 min and then passed over a PD-10 desalting column to remove excess DTT, then the protein was exchanged into a buffer containing 10 mM Hepes at pH 7.5, with 50 mM NaCl, 5 mM MgCl2, and 10 μM GDP. Samples were loaded into the syringes of an Applied Photophysics SX.18 MV stopped-flow spectrophotometer and allowed to equilibrate to 5 or 20 °C. The fluorescence changes were recorded after sample mixing via monitoring at 90° relative to incident light with excitation at 280 nm and emission >320 nm. Separate time courses were used to investigate the fast initial changes (0.2–1 s) and the much slower phase (100–1000 s) of decreasing fluorescence signal. Data were analyzed using Applied Photophysics software and fit to single (or double) exponentials as appropriate. To obtain rate constants and inhibition parameters, data from all (four or more) inhibitor concentrations at a given pH and 5 °C were fit globally using KinTek Global Kinetic Explorer (version 10.2.0) ([20], [38]) using Equation 2 (both steps are taken to be reversible, but the second step returns a reverse rate that is essentially 0). […] Briefly, data were fit to Equation 3 using Kaleidagraph software, version 4.5.4:(3) y=(kinact/Ki)×/(1+((kinact/Ki)×/kinact))

The nature of series [3]: Inhibitor solubility in MHT reaction buffer. Conditions: MHT buffer with 3% dimethyl sulfoxide.
The target in series [4] is T2, Cys12 (UniProt position 12, VVVGACGVGKS). As to the kind of experiment: kinetics. Conditions: 50 mM NaCl, 5 mM MgCl2, MHT buffer: 50 mM MES, 50 mM Hepes, 50 mM Tris, Pre-reduced protein reacting with ARS-853 (inhibitor-bound encounter complex), GDP form.
Series [5] deals with T2, Cys12. As to the kind of experiment: chemical modification.
Series [6] deals with T2, Cys12. As to the kind of experiment: NMR. Conditions: 25 °C, 40 mM NaCl, 5 mM MgCl2, 20 mM Tris-Maleate, 5 mM MgCl2, 20 μM GDP, GDP-bound, inhibitor-free, folded.

These results are taken from publication PMC9352912, “Oncogenic KRAS G12C: Kinetic and redox characterization of covalent inhibition” (The Journal of Biological Chemistry, 2022).

As usually defined, the pKa is the pH at which an ionisable group is half protonated.

Some results are limits rather than exact numbers.

In the case of `C=CC(=O)N1CC(N2CCN(C(=O)CNc3cc(C4(C)CC4)c(Cl)cc3O)CC2)C1` [ARS-853], the “reaction with sulfinic acid form of protein” value in series [1] (H2O2-oxidized KRAS^CCLW (-SO2H)) is reported as “did not react”. For the same compound, the “reaction with sulfenic acid form of protein” value in series [1] is listed as “did not react”. The “time to adduct formation with reduced protein” value in series [1] (reduced KRAS^CCLW (-SH), […] excess of inhibitor, 25 °C) is reported as ≤ 5 min. Moreover, the “k +1” value in series [2] (pH 7.0, 5 °C) was 1.35 ± 0.01; in series [2] (pH 7.5, 5 °C), 1.69 ± 0.01; in series [2] (pH 8.0, 5 °C) it was 1.50 ± 0.01; in series [2] (pH 8.5, 5 °C) it was 1.45 ± 0.01; in series [2] (pH 9.0, 5 °C) it was 0.976 ± 0.009. The “k +2” value in series [2] (pH 7.0, 5 °C) turned out to be 0.0073 ± 0.0004; in series [2] (pH 7.5, 5 °C), 0.0169 ± 0.0005; in series [2] (pH 8.0, 5 °C), 0.038 ± 0.006; in series [2] (pH 8.5, 5 °C), 0.099 ± 0.001; in series [2] (pH 9.0, 5 °C), 0.280 ± 0.003. Also, the “k −1” value stood at 49.7 ± 0.3 in series [2] (pH 7.0, 5 °C); 51.1 ± 0.3 in series [2] (pH 7.5, 5 °C); 51.2 ± 0.3 in series [2] (pH 8.0, 5 °C); 61.7 ± 0.4 in series [2] (pH 8.5, 5 °C); 75.1 ± 0.4 in series [2] (pH 9.0, 5 °C). For the same compound, the “inhibitor solubility (no problem encountered up to)” value in series [3] is ≥ 300 µM.
Take `CC1(C)CC(=O)CC(=O)C1` [dimedone]: the “reaction with sulfenic acid form of protein” value in series [1] was “reacted rapidly”.
Regarding “GTPase KRas (KRAS4B) G12C Cys-light Y137W (KRAS-CCLW) (Homo sapiens; G12C;C51S;C80L;C118S;Y137W)”, the results for the pKa in series [4] (5 °C) and in series [4] (20 °C) were 8.15 ± 0.13 and 8.21 ± 0.09, respectively.
In the case of “GTPase KRas (KRAS4B) G12C/C118S (Homo sapiens; G12C;C118S)”, the pKa in series [5] (50 mM NaCl, 5 mM MgCl2, 15 mM Hepes, 15 mM MES, 5 mM MgCl2, 50 mM NaCl, 200 μM DTPA, N2-sparged, DTT removed, Reduced thiol, inhibitor-free. Nucleotide state not stated for this assay.) is 7.6 ± 0.1; in series [6] it was 7.6 ± 0.4.
Take “GTPase KRas G12C (as studied by Hansen et al. 2018) (Homo sapiens; G12C)”: the pKa was 9.2 in series [5] (KRAS G12C reacting with N-benzylacrylamide, cited from earlier work) and 9.0 ± 0.2 in series [5] (inhibitor-free KRAS G12C, cited from earlier work).
